The results in this text go back to patent publication US8796244B2, “Imidazopyridine derivatives as inhibitors of receptor tyrosine kinases” (Astex Therapeutics Ltd, priority 2008, dated 2014).

The test system of test [1] is parental wild-type Ba/F3 cells. In words: Ba/F3 (WT) cell proliferation assay (Alamar Blue). It counts as cell-based. As to conditions: Mus musculus; for inhibition at 3 µM / inhibition at 10 µM: BaF3, read-out: BaF3 WT prolif, % inhibition.
Test [2] deals with LP-1 cell line (FGF-1/Heparin induced pERK). In words: Cell-based pERK ELISA, LP-1 cells. Conditions: Homo sapiens; for IC50: LP-1, read-out: LP-1 pERK ELISA (μM). In general terms: An ELISA detects its analyte on a solid surface through an enzyme-linked reagent.
The mark [3] stands for this setting: LP-1, read-out: LP-1 pERK ELISA, % inhibition.
[4] abbreviates: BaF3, 72 h, read-out: BaF3 WT prolif (μM).
The mark [5] stands for this setting: BaF3, 72 hours, Alamar Blue, read-out: BaF3 WT prolif.

Where a name gives a salt, the structure may show the parent alone. Read-outs that look alike come from different tables or passages of the source.

By inhibition is commonly meant how much of the control response was suppressed. With `COc1cnc(-c2ccn3c(-c4cccc(NC(=O)NCC(F)(F)F)c4)cnc3c2)nc1N` [Example 173], in test [1], the inhibition at 3 µM is 29.5% and the inhibition at 10 µM came to 22%. The IC50 in test [2] was found to be 0.052 µM.
With `CN1CCC(O)(C#Cc2ccn3c(-c4cccc(NC(=O)NCC(F)(F)F)c4)cnc3c2)CC1` [Example 65, 1-{3-[7-(4-Hydroxy-1-methyl-piperidin-4-ylethynyl)-imidazo[1,2-a]pyridin-3-yl]-phenyl}-3-(2,2,2-trifluoro-ethyl)-urea formate], the inhibition at 10 µM in test [1] was 8.3%. In addition, the IC50 in test [2] stood at 1.3 µM.
For the compound `O=C(NCC(F)(F)F)Nc1cccc(-c2cnc3cc(-c4ccnnc4)ccn23)c1` [Example 88, 1-[3-(7-Pyridazin-4-yl-imidazo[1,2-a]pyridin-3-yl)-phenyl]-3-(2,2,2-trifluoro-ethyl)-urea formate], the inhibition at 10 µM in test [1] worked out at 0%; in test [2] (setting [3]) it was 16%.
Regarding `Cn1nc(-c2ccn3c(-c4cccc(NC(=O)NCC(F)(F)F)c4)cnc3c2)ccc1=O` [Example 62, 1-{3-[7-(1-Methyl-6-oxo-1,6-dihydro-pyridazin-3-yl)-imidazo[1,2-a]pyridin-3-yl]-phenyl}-3-(2,2,2-trifluoro-ethyl)-urea hydrochloride], the IC50 in test [1] (setting [4]) worked out at 1.1 µM; in test [2] it was 0.11 µM.
In the same order, the values of `Nc1nc(-c2ccn3c(-c4cccc(NC(=O)NCC(F)(F)F)c4)cnc3c2)ncc1F` [Example 102, 1-{3-[7-(4-Amino-5-fluoro-pyrimidin-2-yl)-imidazo[1,2-a]pyridin-3-yl]-phenyl}-3-(2,2,2-trifluoro-ethyl)-urea bis-hydrochloride] are 2.3 µM and 0.0939 µM.
As to `CCNC(=O)Nc1cccc(-c2cnc3cc(-c4ncccn4)ccn23)c1` [Compound 280], the inhibition at 3 µM in test [1] worked out at 74%. Moreover, in test [2], the IC50 is 0.35 µM.
In the case of `Cc1cccc(-c2ccn3c(-c4cccc(NC(=O)NCC(F)(F)F)c4)cnc3c2)n1` [Example 98, 1-{3-[7-(6-Methyl-pyridin-2-yl)-imidazo[1,2-a]pyridin-3-yl]-phenyl}-3-(2,2,2-trifluoro-ethyl)-urea bis-hydrochloride], the IC50 in test [1] (setting [4]) stood at 0.7 µM; in test [2], 0.02 µM.
In the same order, the values of `Cn1ccc(C#Cc2ccn3c(-c4cccc(NC(=O)NCC(F)(F)F)c4)cnc3c2)n1` [Example 86, 1-{3-[7-(1-Methyl-1H-pyrazol-3-ylethynyl)-imidazo[1,2-a]pyridin-3-yl]-phenyl}-3-(2,2,2-trifluoro-ethyl)-urea formate] are 1.9 µM and 0.04 µM.
With `COc1cc(-c2ccn3c(-c4cccc(NC(=O)NCC(F)(F)F)c4)cnc3c2)ncn1` [Example 183], the IC50 was determined as 0.29 µM in test [1] (setting [5]) and 0.028 µM in test [2].
On to `Cc1ccc(-c2ccn3c(-c4cccc(NC(=O)NCC(F)(F)F)c4)cnc3c2)nc1` [Example 91, 1-{3-[7-(5-Methyl-pyridin-2-yl)-imidazo[1,2-a]pyridin-3-yl]-phenyl}-3-(2,2,2-trifluoro-ethyl)-urea formate], for which the IC50 in test [1] (setting [4]) amounted to 0.1 µM; in test [2] it was 0.0079 µM.
Turning to `O=C(NCC(F)(F)F)Nc1cccc(-c2cnc3cc(C#CCCO)ccn23)c1` [Example 19, 1-{3-[7-(4-Hydroxybut-1-ynyl)imidazo[1,2-a]pyridin-3-yl]phenyl}-3-(2,2,2-trifluoroethyl)urea], the IC50 was 0.55 µM in test [1] (setting [5]) and 0.13 µM in test [2].
As to `Cc1nccc(-c2ccn3c(-c4cccc(NC(=O)NCC(F)(F)F)c4)cnc3c2)n1` [Example 61, 1-{3-[7-(2-Methyl-pyrimidin-4-yl)-imidazo[1,2-a]pyridin-3-yl]-phenyl}-3-(2,2,2-trifluoro-ethyl)-urea hydrochloride], the inhibition at 10 µM in test [1] was determined as 15%. Also, in test [2], the IC50 was 0.064 µM.
With `O=C(NCC(F)(F)F)Nc1cccc(-c2cnc3cc(-c4nc5c(s4)CNCC5)ccn23)c1` [Example 53, 1-{3-[7-(4,5,6,7-Tetrahydro-thiazolo[5,4-c]pyridin-2-yl)-imidazo[1,2-a]pyridin-3-yl]-phenyl}-3-(2,2,2-trifluoroethyl)-urea formate], the figures for the IC50 in test [1] (setting [4]) and in test [2] were 4.1 µM and 0.023 µM, respectively.
`O=C(NCC(F)(F)F)Nc1cccc(-c2cnc3cc(-c4cnc(N5CC(F)(F)C5)nc4)ccn23)c1` [Example 87, 1-(3-{7-[2-(3,3-Difluoro-azetidin-1-yl)-pyrimidin-5-yl]-imidazo[1,2-a]pyridin-3-yl}-phenyl)-3-(2,2,2-trifluoro-ethyl)-urea bis-trifluoroacetate]: the values for the IC50 in test [1] (setting [4]) and in test [2] were 0.41 µM and 0.072 µM, respectively.
Take `COc1cnc(-c2ccn3c(-c4cccc(NC(=O)NCC(F)(F)F)c4)cnc3c2)cn1` [Example 89, 1-{3-[7-(5-Methoxy-pyrazin-2-yl)-imidazo[1,2-a]pyridin-3-yl]-phenyl}-3-(2,2,2-trifluoro-ethyl)-urea]: the IC50 in test [1] (setting [5]) came to 0.097 µM; in test [2], 0.073 µM.
Turning to `O=C(NCC(F)(F)F)Nc1cccc(-c2cnc3cc(-c4ccccn4)ccn23)c1` [Example 3, 1-[3-(7-Pyridin-2-ylimidazo[1,2-a]pyridinyl)phenyl]-3-(2,2,2-trifluoroethyl)urea], the IC50 was 0.16 µM in test [1] (setting [5]) and 0.0088 µM in test [2].
For the compound `Nc1nc(-c2ccn3c(-c4cccc(NC(=O)NC5CC5)c4)cnc3c2)ncc1F` [Example 166], the inhibition at 10 µM in test [1] was 0%. Besides, the IC50 in test [2] was determined as 0.29 µM.
`Cc1cnc(N)nc1-c1ccn2c(-c3cccc(NC(=O)NCC(F)(F)F)c3)cnc2c1` [Example 176]: the inhibition at 10 µM in test [1] stood at 59%. Besides, in test [2], the IC50 was found to be 0.33 µM.
In the same order, the values of `O=C(NCC(F)(F)F)Nc1cncc(-c2cnc3cc(Cl)ccn23)c1` [Example 31, 1-[5-(7-Chloroimidazo[1,2-a]pyridin-3-yl)pyridin-3-yl]-3-(2,2,2-trifluoroethyl)urea] are 0% and 0.82 µM.
On to `O=C(NCC(F)(F)F)Nc1cccc(-c2cnc3cc(-c4cnn(C5CCCNC5)c4)ccn23)c1` (stereo not shown) [Example 40, 1-{3-[7-(1-Piperidin-3-yl-1H-pyrazol-4-yl)-imidazo[1,2-a]pyridin-3-yl]-phenyl}-3-(2,2,2-trifluoro-ethyl)-urea formate], for which the results for the IC50 in test [1] (setting [4]) and in test [2] were 4 µM and 0.046 µM, respectively.
For `Nc1nc(-c2ccn3c(-c4cccc(NC(=O)NCC(F)(F)F)c4)cnc3c2)ncc1C(F)(F)F` [Example 178], the IC50 was determined as 4.52 µM in test [1] (setting [5]) and 0.018 µM in test [2].
In the case of `Cc1ccnc(-c2ccn3c(-c4cccc(NC(=O)NCC(F)(F)F)c4)cnc3c2)n1` [Example 59, 1-{3-[7-(4-Methyl-pyrimidin-2-yl)-imidazo[1,2-a]pyridin-3-yl]-phenyl}-3-(2,2,2-trifluoro-ethyl)-urea hydrochloride], the IC50 was determined as 5.1 µM in test [1] (setting [4]) and 0.1 µM in test [2].
Turning to `O=C(NCC(F)(F)F)Nc1cccc(-c2cnc3cc(-c4cnn(C5CCOC5)c4)ccn23)c1` (stereo not shown) [Example 47, 1-(3-{7-[1-(Tetrahydro-furan-3-yl)-1H-pyrazol-4-yl]-imidazo[1,2-a]pyridin-3-yl}-phenyl)-3-(2,2,2-trifluoro-ethyl)-urea hydrochloride], the values for the IC50 in test [1] (setting [4]) and in test [2] were 0.68 µM and 0.0098 µM, respectively.
For the compound `CC(C)(C(=O)O)n1cc(-c2ccn3c(-c4cccc(NC(=O)NCC(F)(F)F)c4)cnc3c2)cn1` [Example 5, 2-Methyl-2-[4-(3-{3-[3-(2,2,2-trifluoroethyl)ureido]phenyl}imidazo [1,2-a]pyridin-7-yl)pyrazol-1-yl]propionic acid], the inhibition at 10 µM in test [1] turned out to be 0%. The inhibition at 1 µM in test [2] (setting [3]) stood at 45%.
`O=C(NCC(F)(F)F)Nc1cccc(-c2cnc3cc(-c4nnc(C5CCCO5)s4)ccn23)c1` (stereo not shown) [Example 1, 1-(3-{7-[5-(Tetrahydrofuran-2-yl)-[1,3,4]thiadiazol-2-yl]imidazo[1,2-a]pyridin-3-yl}-phenyl)-3-(2,2,2-trifluoroethyl)urea]: the IC50 stood at 0.92 µM in test [1] (setting [5]) and 0.0074 µM in test [2].
Take `CNc1ncc(-c2ccn3c(-c4cccc(NC(=O)NCC(F)(F)F)c4)cnc3c2)cc1C` [Example 161]: the IC50 came out at 0.15 µM in test [1] (setting [5]) and 0.01 µM in test [2].
In the same order, the values of `Nc1cnc(-c2ccn3c(-c4cccc(NC(=O)NCC(F)(F)F)c4)cnc3c2)nc1` [Example 174] are 1.5 µM and 0.49 µM.
As for `O=C(NCC(F)(F)F)Nc1cncc(-c2cnc3cc(-c4ncccn4)ccn23)c1` [Example 35, 1-[5-(7-Pyrimidin-2-yl-imidazo[1,2-a]pyridine-3-yl)pyridin-3-yl]-3-(2,2,2-trifluoroethyl)urea hydrochloride], the inhibition at 10 µM in test [1] was 0%. Moreover, in test [2], the IC50 amounted to 0.33 µM.
With `O=C(NCC(F)(F)F)Nc1cccc(-c2cnc3cc(-c4nnc(CCN5CCCCC5)s4)ccn23)c1` [Example 22, 1-(3-{7-[5-(2-Piperidin-1-ylethyl)-[1,3,4]thiadiazol-2-yl]imidazo[1,2-a]pyridin-3-yl}phenyl)-3-(2,2,2-trifluoroethyl)urea hydrochloride], the values for the IC50 in test [1] (setting [4]) and in test [2] were 1.1 µM and 0.0044 µM, respectively.
Consider `O=C1CN(c2ccc(-c3ccn4c(-c5cccc(NC(=O)NCC(F)(F)F)c5)cnc4c3)nn2)CCN1` [Example 95, 1-(3-{7-[6-(3-Oxo-piperazin-1-yl)-pyridazin-3-yl]-imidazo[1,2-a]pyridin-3-yl}-phenyl)-3-(2,2,2-trifluoro-ethyl)-urea bis-hydrochloride], for which the inhibition at 10 µM in test [1] worked out at 0%. Moreover, the IC50 in test [2] turned out to be 3.4 µM.
Consider `O=C(NCC(F)(F)F)Nc1cccc(-c2cnc3cc(-c4ccc(N5CCCC(O)C5)nn4)ccn23)c1` (stereo not shown) [Example 133, 1-(3-{7-[6-(3-Hydroxy-piperidin-1-yl)-pyridazin-3-yl]-imidazo[1,2-a]pyridin-3-yl}-phenyl)-3-(2,2,2-trifluoro-ethyl)-urea], for which, in test [1], the inhibition at 3 µM came out at 34% and the inhibition at 10 µM came to 31%. Further, the IC50 in test [2] was found to be 0.0714 µM.
